This note sets out measurements from patent publication US4401604A, “Process for preparing thiosulfenamide derivatives of N-phosphonomethylglycine triesters” (Monsanto Company, priority 1981, dated 1983).

The structures appear in SMILES notation.

Holding throughout (experiment): Pre-emergent herbicidal activity
Holding throughout (type): in vivo
Common to all, as to conditions: Table III; 11.2 kg/h; 2 WAT

One experiment deals with Lambsquarters. Put shortly:
(§1)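 Pre-emergence herbicide trial with compound incorporated into the top soil layer over planted seeds or propagules; sub-irrigated pans held two weeks under normal light, then scored for percent control versus untreated soil.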

For the next experiment, the system named is Yellow Nutsedge. In a few lines:
as §1

The test system of another experiment is Downy Brome. In a few lines:
as §1

A further experiment deals with Quackgrass. Put shortly:
as §1

For a further experiment, the system named is Cocklebur. Put shortly:
as §1

Another experiment relates to Canada Thistle. In a few lines:
as §1

The next experiment has as its system Johnsongrass. In a few lines:
as §1

A further experiment has as its system Velvetleaf. Put shortly: as §1
For a further experiment, the system named is Morningglory. In a few lines:
as §1

The test system of another experiment is Barnyardgrass. Put shortly: as §1
The subject of another experiment is Smartweed. In a few lines:
as §1

Turning to `COC(=O)CN(CP(=O)(Oc1ccccc1)Oc1ccccc1)SSC(C)C` [I, Glycine, N-[(diphenoxyphosphinyl)methyl]-N-[(1-methylethyl)dithio]-, methyl ester], the “pre-emergent herbicidal activity index” value is given as 3 (75-100% control) in the experiment on Lambsquarters; 3 (75-100% control) with Yellow Nutsedge; 2 (50-74% control) in the experiment with Downy Brome; 3 (75-100% control) in the experiment with Quackgrass; 1 (25-49% control) in the experiment with Cocklebur; 3 (75-100% control) with Canada Thistle. The “pre-emergent herbicidal activity index” value is 0 (0-24% control) in the experiment on Johnsongrass; 0 (0-24% control) in the experiment on Velvetleaf; 1 (25-49% control) in the experiment with Morningglory; 2 (50-74% control) with Barnyardgrass; 2 (50-74% control) with Smartweed.
